In this test the target is T1, 5-lipoxygenase (isolated human leukocytes) (Homo sapiens, UniProt P09917).
T1 construct: 5-Lipoxygenase Assay Using Isolated Human Leukocytes (5LOA2); endogenous in cells; host or cells: isolated human blood leukocytes, platelets removed
T1 sequence (P09917 1-674): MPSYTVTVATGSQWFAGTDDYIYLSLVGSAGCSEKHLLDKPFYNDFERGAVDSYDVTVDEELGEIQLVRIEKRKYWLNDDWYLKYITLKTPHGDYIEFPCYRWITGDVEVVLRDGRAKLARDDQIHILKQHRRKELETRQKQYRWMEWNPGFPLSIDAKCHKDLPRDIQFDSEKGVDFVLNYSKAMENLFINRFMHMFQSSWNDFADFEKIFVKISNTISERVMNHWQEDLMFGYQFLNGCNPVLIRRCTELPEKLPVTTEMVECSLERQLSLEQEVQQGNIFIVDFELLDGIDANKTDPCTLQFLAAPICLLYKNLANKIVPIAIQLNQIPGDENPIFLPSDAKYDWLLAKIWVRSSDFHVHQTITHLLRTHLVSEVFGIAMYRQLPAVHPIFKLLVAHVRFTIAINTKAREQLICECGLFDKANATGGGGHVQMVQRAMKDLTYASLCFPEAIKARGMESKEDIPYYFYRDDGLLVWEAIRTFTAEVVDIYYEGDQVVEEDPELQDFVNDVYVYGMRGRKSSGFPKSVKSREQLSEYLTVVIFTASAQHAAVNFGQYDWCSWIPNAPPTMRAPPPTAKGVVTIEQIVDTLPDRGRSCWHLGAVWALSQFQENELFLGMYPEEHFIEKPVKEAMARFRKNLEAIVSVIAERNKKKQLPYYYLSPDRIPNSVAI
Briefly: 5-Lipoxygenase Assay Using Isolated Human Leukocytes (5LOA2). Type of test: cell-based. The settings on record: 5LOA2; 50% inhibition of 5-HETE formation; E -number means X 10^-no.; read-out: Concentration giving 50.00 % Inhibition (5LOA2). The protocol:
5-Lipoxygenase Assay Using Isolated Human Leukocytes (5LOA2)
The formation of 5-HETE in human leukocytes is considered a measure of 5-lipoxygenase activity. The protocol is described in the following.
Fresh heparinized or EDTA treated human blood is mixed with 6% dextran-3% dextrose in isotonic saline in the ratio 0.25 ml dextran solution per 1.0 ml blood. After mixing the blood is allowed to sit at room temperature for about 90 minutes while the RBC's settle. During this period, the plasma is removed with a plastic pipette to nalgens tubes.
The plasma is centrifuged at 800 rpm ([…]) on the Beckman Td-b refrigerated centrifuge to remove the platelets (which remain in the supernatant). The pellet, consisting of leukocytes and erythrocytes, is treated with 10 ml 0.87% ammonium chloride at room temperature for four minutes, lysing the red cells. At the end of four minutes the cells are diluted with a 2×volume of phosphate buffered saline, pH 7.4, and centrifuged for ten minutes. The cells are washed three times with the phosphate buffered saline. Any of the pelleted cell matter which is not easily resuspended is discarded during the washings --the material contains platelets (12-lipoxygenase activity).
After washing, the cells are resuspended in phosphate buffered saline containing 1.0 mM calcium and 0.5 mM magnesium. After counting the cells are diluted to 1.5-2.0×10^7 leukocytes per milliliter.
To each polypropylene reaction tube is added 0.48 ml leukocytes in Ca-Mg phosphate buffered saline, pH 7.4; 1-5 μl test compound dissolved in DMSO and buffer; or DMSO for control tubes.
The tubes preincubate at 37° C. for five minutes. […]
A portion of the ethanol solution is injected into the HPLC system for 5-HETE quantitation.
The HPLC system consists of Hewlett-Packard 1040A UV spectrophotometry system with an HP85 computer. […] Peaks are measured with a Hewlett Packard 3360A integrator. […] The flow is monitored at 235 nm for 5-HETE quatitation. […]

On to `COc1ccc(CCc2ccc(NC(=O)c3ccc(C)cc3O)cc2)cc1OC` [Example 46, N-[4-[2-(3,4-Dimethoxyphenyl)ethyl]phenyl]-2-hydroxy-4-methylbenzamide], for which the IC50 came out at 1690 nM.

Source of the values: patent US4939133A, “N-substituted-2-hydroxy-α-oxo-benzeneacetamides and pharmaceutical compositions having activity as modulators of the arachidonic acid cascade” (Warner-Lambert Company, priority 1985, dated 1990).
